“And” between values parts separate entries of the source, which are not always exact repeats. Equal entries are not always repeated. Where two headings read alike, the source gives them in different places.

This note sets out measurements from US20040057976A1, “Insect bait” (priority 2002, published 2004).

Series [1] has as its system T. Albipes adults. Conditions: first trial, non-forced bioassay, means of 5 replicates. The source says:
White-footed ants were collected from a stand of Phoenix roebelenii palms at the University of Florida Fort Lauderdale Research and Education Center (Broward Co., FL). Adult ants and brood were collected from nesting sites in palm thatch between 9 a.m. and 3 p.m., when most of the foragers are in the nests. The thatch was placed in a plastic 100-liter garbage pail through a 28-cm hole cut into the center of its lid. The upper portions of the interior sides of the pail were coated with a petroleum jelly (Vaseline® London, UK) to retard the ants' escape.
Infested thatch material was taken from the garbage pail, placed in the container, covered with 1×15-cm strips of wood and a separator sheet of 3-mm polycarbonate with 2-mm holes. Dripping water from a 2-1 tank suspended over the container forced the ants to leave the thatch and enter nesting tubes (10×75 mm clear polystyrene test tubes) (Fisher Scientific, Pittsburgh, Pa.), filled at the bottom with a small cotton ball soaked with sugar water, and completely covered with aluminum foil.
Nalgene™ reusable plastic utility boxes with lids ([…]) (Fisher Scientific, Pittsburgh, Pa.) were used to hold white-footed ant colonies for laboratory tests (FIG. 4). Nesting tubes with about 200 ants and dozens of brood were placed into each box, held in place with a small amount of Handi-Tak®. Ants were provisioned with water by placing a small cotton ball moistened with approximately 2-ml deionized water in a 41×41×8 mm plastic weighing boat.
Five holes (0.86 mm ID) were drilled into the caps. Vials were filled with 4.5 ml bait solution, inverted, and attached to the sides of the boxes with Handi-Tak® (FIG. 3). Sugar water was fed ad libitum to the ants at all times and supplemented twice weekly by live termites or canned chicken for protein. A felt pad was placed under each vial to catch errant drops and prevent ants from being entrapped in their sticky residue. Ants were allowed to acclimatize in boxes for several weeks. Each day dead ants were removed and replaced with live ants. When ant populations appeared stable, treatments were applied. No ants were added during the experiment.
Fourteen treatments (5 replicates each, assigned randomly) were applied to the ants in boxes. […] The suspension of XR-007 was placed into a plastic weighing boat (0.5 g), and replaced twice a week or when it desiccated. One corner was cut away to allow for easier access by the ants.
Both vials had felt pads under them. Boxes with gels had the gels in weighing boats. The boats were on the left side of the box, and the untreated sugar water vials were on the right side. […] This was accomplished by adding 0.17-ml to panels and distributing the solution evenly with a fine paintbrush previously saturated in solution. One-half g XR-007 and indoxacarb in honey were placed into the bulb of 9.3-ml large-tip opening transfer pipettes (having had 8-cm cut back from the tip, Samco®b, San Fernando, Calif.).
Dead ants were removed and counted daily for the first week, then twice weekly thereafter. At the end of the experiment, all ants still living were killed with ethanol and counted to determine the total number of ants in each box. […] Mean percent mortalities were analyzed by ANOVA (analysis of variance) and general linear model (SAS Institute, 1989 SAS/STAT user's guide, version 6, 4th ed. SAS Institute, Cary, N.C.) and means separated using Student-Newman-Keals test at P<0.05.
Mortality for the first trial was recorded for 51 days.

A further series has as its system white-footed ants. Nature of the series: Two-choice, random-order preference tests on exterior walls. It is filed as in vivo, Technomyrmex albipes. As to the method:
Two commercial ready-to-use (RTU) ant baits and several sugar solutions were tested with and without active ingredients, including 10,000 ppm DOT (Uncle Albert's Super Smart Ant Bait®, A Safe Pest Eliminators, Inc., Miami, Fla.) and 10,000 ppm orthoboric acid (Drax Liquidator®, Waterbury Companies, Inc., Waterbury, Conn.). Sugar water solutions tested included: 100,000 ppm, 150,000 ppm, 200,000 ppm, 250,000 ppm, 350,000 ppm, 400,000 ppm, and 500,000 ppm sucrose (Publix Supermarkets, […] and 500,000 ppm fructose (Fisher Scientific, Pittsburgh, Pa.), 250,000 ppm maltose (Fisher Scientific). Four insect bait formulations of the invention (ND 1, ND2, ND3, ND4, see Table II) were also tested against sugars and commercial baits. […] Borax, Los Angeles, Calif.). Glass shell vials (6-ml capacity) with […] plastic caps (Fisher Scientific) were used for bait containers. Vials were modified for use as bait containers by drilling holes (6 mm) in the caps, inserting cotton dental wicks, which minimize bait desiccation and entrapment by ants, adding 4.5-ml solution, and using […]® (Pacer Technology, Rancho Cucamonga, Calif.) adhesive putty to hold the vials on the walls. Each test consisted of 5 bait vial pairs placed in 2 columns (FIG. 1). […] Nine counts of ants on each wick were taken approximately every 30 minutes over 4.5 hours. When the numbers of ants could not be counted visually, digital photographs were taken, and counts were taken from a computer display. Data were analyzed using t-Test and Mann-Whitney Rank Sum Tests at P=0.05.

The test system of series [2] is T. Albipes adults. Briefly: Laboratory efficacy test, second trial (non-forced bioassay, 15 treatments). It is filed as in vivo, Technomyrmex albipes. Conditions: means of 5 replicates. The procedure:
When ant populations appeared stable, treatments were applied. No ants were added during the experiment.
Surface treatments included 1,200 ppm fipronil (Termidor®& SC), 500 ppm indoxacarb (DuPont, Wilmington, Del.), 500 ppm deltamethrin (DeltaDust®, Aventis Environmental Science), and 600 ppm lambda cyhalothrin (Demand®V CS, Syngenta Crop Protection).
Both vials had felt pads under them. Boxes with gels had the gels in weighing boats.
Mortality for the second trial was recorded for 47 days.

Where [3] appears, read: test 18: 25% Sucrose vs. 25% Maltose, P=0.852.
Setting [4] is: test 19: 25% Sucrose vs. 25% Glucose, P=0.463.
Where [5] appears, read: test 17: 50% Fructose vs. 50% Glucose, P=0.817.

As to spinosad, the “Mean percent Mortality (+/SD) of T. Albipes adults” value (shortened to “Mean percent Mortality (+/SD)”) in the series with T. Albipes adults [1] (1 day exposure) is reported as 1.01 ± 0.87b %; in the series with T. Albipes adults [1] (3 days exposure), 2.02 ± 0.83d %; with T. Albipes adults [1] (7 days exposure) it was 3.78 ± 1.85e %; in the series with T. Albipes adults [1] (30 days exposure) it was 16.15 ± 3.78c %; with T. Albipes adults [1] (51 days exposure) it was 34.51 ± 2.42cd %.

Regarding `O.O.O.O.O=BOB1OB(OB=O)OB2OB([O-])OB([O-])OB(O1)O2.[Na+].[Na+]` [DOT, disodium octaborate tetrahydrate], the “preference in binary choice test (counts of ants on wicks)” value (“preference in binary choice test” for short) in the series with white-footed ants (tests 24-30: 25% Sucrose vs. 25% Sucrose + 1% to 7% DOT in 1% increments, P=0.218 to 0.916) is given as “no observed preferences”.

In the case of `OC[C@H]1O[C@@](CO)(O[C@H]2O[C@H](CO)[C@@H](O)[C@H](O)[C@H]2O)[C@@H](O)[C@@H]1O` [sucrose], the “preference in binary choice test” value in the series on white-footed ants (test 1: 10% Sucrose vs. water, P<0.001) was “highly preferred”; in the series on white-footed ants (test 3: 25% Sucrose vs. 10% Sucrose, P<0.05), “preferred”; with white-footed ants (test 4: 25% Sucrose vs. 25% Fructose, P<0.001), “preferred”; in the series with white-footed ants (test 5: 25% Sucrose vs. 15% Sucrose, P<0.05), “preferred”; in the series with white-footed ants (test 6: 25% Sucrose vs. 20% Sucrose, P<0.05), “preferred”; with white-footed ants (test 7: 40% Sucrose vs. ND1, P=0.002), “preferred”. In addition, the “preference in binary choice test” value in the series on white-footed ants (test 13: 25% Sucrose vs. Uncle Albert's Super Smart Ant Bait (no active ingredient), P=0.458) was “no significant preferences”; in the series on white-footed ants (test 15: 25% Sucrose vs. 50% Sucrose, P=0.112), “no significant preference”; in the series on white-footed ants (setting [3]) it was “no significant preferences”; with white-footed ants (setting [4]) it was “no significant preferences”.

Regarding `OC[C@H]1O[C@H](O[C@H]2[C@H](O)[C@@H](O)C(O)O[C@@H]2CO)[C@H](O)[C@@H](O)[C@@H]1O` (mixture of isomers) [maltose], in the series on white-footed ants (setting [3]), the “preference in binary choice test” value is “no significant preferences”.

With `O=C(CO)[C@@H](O)[C@H](O)[C@H](O)CO` [fructose], the “preference in binary choice test” value in the series with white-footed ants (test 2: 25% Fructose vs. 25% Maltose, P=0.033) is “preferred”; in the series with white-footed ants (test 14: 25% Fructose vs. Drax Liquidator (no active ingredient), P=0.580) it was “no significant preferences”; with white-footed ants (test 16: 25% Fructose vs. Uncle Albert's Super Smart Ant Bait (no active ingredient), P 0.057) it was “no significant preferences”; in the series on white-footed ants (setting [5]), “no significant preferences”.

Regarding `O=C[C@H](O)[C@@H](O)[C@H](O)[C@H](O)CO` [glucose], the “preference in binary choice test” value in the series with white-footed ants (setting [5]) and in the series on white-footed ants (setting [4]) was “no significant preferences” throughout.

For `COC(=O)N(C(=O)N1CO[C@@]2(C(=O)OC)Cc3cc(Cl)ccc3C2=N1)c1ccc(OC(F)(F)F)cc1` [DPX surface, indoxacarb], the “Mean % mortality (+/SD) of T. albipes adults” value in the series with T. Albipes adults [2] (1 day exposure) is on record as 2.19 ± 2.42bcd %; with T. Albipes adults [2] (2 days exposure), 2.56 ± 2.51c %; in the series with T. Albipes adults [2] (8 days exposure), 5.61 ± 4.96c %; in the series on T. Albipes adults [2] (29 days exposure) it was 16.59 ± 12.72de %; in the series with T. Albipes adults [2] (47 days exposure) it was 27.87 ± 14.59e %.

On to `N#Cc1nn(-c2c(Cl)cc(C(F)(F)F)cc2Cl)c(N)c1[S+]([O-])C(F)(F)F` (stereo not drawn) [Fipronil, fipronil], for which the “Mean percent Mortality (+/SD)” value with T. Albipes adults [1] (1 day exposure) was 0.98 ± 0.70b %; in the series with T. Albipes adults [1] (3 days exposure), 3.46 ± 1.38cd %; in the series on T. Albipes adults [1] (7 days exposure), 6.76 ± 2.25e %; in the series with T. Albipes adults [1] (30 days exposure) it was 27.88 ± 5.89bc %; with T. Albipes adults [1] (51 days exposure), 53.76 ± 10.84b %.

Take `O=[N+]([O-])NC1=NCCN1Cc1ccc(Cl)nc1` [Imidacloprid]: the “Mean percent Mortality (+/SD)” value with T. Albipes adults [1] (1 day exposure) was 5% and 4.92 ± 4.02ab %; in the series with T. Albipes adults [1] (7 days exposure), 29.84 ± 10.63bc %; in the series on T. Albipes adults [1] (7 days exposure, listed as Irnidacloprid) it was 30%; in the series on T. Albipes adults [1] (30 days exposure) it was 79% and 78.55 ± 4.83a %; in the series with T. Albipes adults [1] (51 days exposure), 91% and 90.86 ± 5.43a %.

Consider `CN1COCN(Cc2cnc(Cl)s2)/C1=N\[N+](=O)[O-]` [Thiamethoxam 10 ppm, Thiamethoxam], for which the “Mean percent Mortality (+/SD)” value in the series on T. Albipes adults [1] (1 day exposure) is 4% and 4.44 ± 2.26ab %; with T. Albipes adults [1] (1 day exposure, listed as Thiamethoxam 1 ppm), 1.66 ± 1.17b %; in the series with T. Albipes adults [1] (3 days exposure), 18.33 ± 8.49b %; in the series with T. Albipes adults [1] (3 days exposure, listed as Thiamethoxam 1 ppm) it was 3.64 ± 2.80cd %; in the series on T. Albipes adults [1] (7 days exposure) it was 39% and 38.81 ± 11.13b %; in the series with T. Albipes adults [1] (7 days exposure, listed as Thiamethoxam 1 ppm), 6.44 ± 4.73e %. The “Mean percent Mortality (+/SD)” value in the series with T. Albipes adults [1] (30 days exposure) was 65% and 64.77 ± 15.51a %; with T. Albipes adults [1] (30 days exposure, listed as Thiamethoxam 1 ppm), 19.73 ± 9.98c %; with T. Albipes adults [1] (51 days exposure), 84% and 84.40 ± 10.09a %; in the series on T. Albipes adults [1] (51 days exposure, listed as Thiamethoxam 1 ppm) it was 44.02 ± 13.73bcd %.
